Converted amounts (≈) assume the structure as drawn.
Legend:
[1] = system: Aphidius rhopalosiphi; test: LR50; higher = less toxic; conditions: not reported; mortality
[2] = system: Bibionidae; conditions: chronic/long-term; duration: 21 days; other
[3] = system: Apis mellifera; conditions: acute; duration: 48 hours; oral; unspecified; mortality
[4] = system: Rattus norvegicus
[5] = system: Tagia sp.
[6] = system: Beta vulgaris; conditions: acute; duration: 14 days; other
[7] = system: Canidae; conditions: chronic; duration: 1 years; oral; Dog Other; clinical chemistry
[8] = system: Oncorhynchus mykiss; conditions: acute; duration: 96 hours; mortality
[9] = system: Pleurozium sp.; conditions: acute; duration: 72 hours; biomass
[10] = system: Daphnia magna; conditions: chronic/long-term; duration: 21 days; reproduction
[11] = system: Colinus virginianus; conditions: for LD50: acute, oral, mortality
[12] = system: Aphidius rhopalosiphi; conditions: not reported; reproduction
[13] = system: Mus musculus; conditions: chronic; duration: 18 months; histopathology: neoplastic

Q: What does the source list for Fc1ccc([C@@]2(Cn3cncn3)O[C@@H]2c2ccccc2Cl)cc1 [Epoxiconazole]?
A: LR50 [1]: > 246 g/ha; NOEC [2]: 0.0625 mg/L; LD50 [3]: > 83 µg/piece; LD50 ([4]; acute, oral, mortality): 3160 mg/kg; NOAEL ([4]; reproduction developmental, reproduction): 2.3 mg/kg-day; LC50 ([5]; acute, duration: 14 days, mortality): > 1000 mg/kg; NOEC ([5]; chronic/long-term, reproduction): 0.167 mg/kg; LEL [6]: 250 g/ha; NOAEL [7]: 1.6 mg/kg-day; LC50 [8]: 3.14 µg/mL (≈ 9.52 µM); NOEC [9]: 0.0078 mg/L; NOEC [10]: 0.63 mg/L; LD50 ([11]; diet): > 5000 mg/kg; LD50 [11]: > 2000 mg/kg; NOEL ([11]; reproduction developmental): 1 mg/kg-day; LEL [12]: 246 g/ha; NOAEL [13]: 0.8 mg/kg-day

Reference: EPA's ToxValDB 9.5 (doi:10.2903/j.efsa.2008.138r)
